Test results published in ChEMBL document CHEMBL2074162, “P-glycoprotein-mediated transcellular transport of MDR-reversing agents” (FEBS Lett, 1993).

Molecular target: ATP-dependent translocase ABCB1 (Homo sapiens, UniProt P08183)
Assay: TP_TRANSPORTER: transepithelial transport (basal to apical) in MDR1-expressing LLC-PK1 cells
Assay type: functional, cell-based
Details: pig

ATP-dependent translocase ABCB1, sequence (P08183 whole entry): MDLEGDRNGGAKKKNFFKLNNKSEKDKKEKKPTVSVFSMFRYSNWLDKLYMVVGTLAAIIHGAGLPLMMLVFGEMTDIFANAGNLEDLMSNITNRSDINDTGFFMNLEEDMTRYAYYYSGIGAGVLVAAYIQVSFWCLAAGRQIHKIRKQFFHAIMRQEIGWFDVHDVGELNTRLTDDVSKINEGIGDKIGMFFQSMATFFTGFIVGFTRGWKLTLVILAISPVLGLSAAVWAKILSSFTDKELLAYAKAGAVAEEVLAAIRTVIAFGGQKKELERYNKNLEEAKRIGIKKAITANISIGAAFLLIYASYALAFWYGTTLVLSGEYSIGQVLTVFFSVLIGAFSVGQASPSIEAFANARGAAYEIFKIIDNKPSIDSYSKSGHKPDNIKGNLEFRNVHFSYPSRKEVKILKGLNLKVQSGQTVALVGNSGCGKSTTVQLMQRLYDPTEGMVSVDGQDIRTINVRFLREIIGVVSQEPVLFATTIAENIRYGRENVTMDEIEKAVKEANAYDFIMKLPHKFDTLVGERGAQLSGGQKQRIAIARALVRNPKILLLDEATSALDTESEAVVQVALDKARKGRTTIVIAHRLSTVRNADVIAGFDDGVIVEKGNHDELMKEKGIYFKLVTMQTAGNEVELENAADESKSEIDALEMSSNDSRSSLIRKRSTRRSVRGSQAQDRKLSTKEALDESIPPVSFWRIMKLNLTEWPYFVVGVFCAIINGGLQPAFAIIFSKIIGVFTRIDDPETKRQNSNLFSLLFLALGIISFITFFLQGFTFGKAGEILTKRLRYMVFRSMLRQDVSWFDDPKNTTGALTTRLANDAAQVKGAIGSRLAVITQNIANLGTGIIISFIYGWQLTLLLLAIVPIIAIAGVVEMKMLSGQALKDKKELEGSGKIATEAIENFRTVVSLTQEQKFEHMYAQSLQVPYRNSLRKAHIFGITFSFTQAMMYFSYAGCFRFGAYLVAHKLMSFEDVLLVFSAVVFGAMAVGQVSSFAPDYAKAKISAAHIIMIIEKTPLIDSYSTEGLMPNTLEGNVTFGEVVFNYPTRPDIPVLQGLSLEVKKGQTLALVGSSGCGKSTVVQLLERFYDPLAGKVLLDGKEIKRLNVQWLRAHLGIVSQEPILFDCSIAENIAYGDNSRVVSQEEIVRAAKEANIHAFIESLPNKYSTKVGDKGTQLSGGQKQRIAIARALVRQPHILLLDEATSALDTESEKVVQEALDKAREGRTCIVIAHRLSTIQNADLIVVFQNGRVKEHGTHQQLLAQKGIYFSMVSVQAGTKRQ

Activity | Structure (SMILES)
substrate [+] | CCOC(=O)C1=C(C)NC(C)=C(C(=O)OCCNC(=O)c2ccc(N=[N+]=[N-])cc2)C1c1ccccc1C(F)(F)F (configuration not stated) [AZIDOPINE]
substrate [+] | COc1ccc([C@@H]2Sc3ccccc3N(CCN(C)C)C(=O)[C@@H]2OC(C)=O)cc1 [DILTIAZEM]
